The text below walks through data of patent US10041937B2, “Macrophage identification agent, and identification method, sorting method, evaluation method, screening method and kit using the macrophage identifier agent” (CANON KABUSHIKI KAISHA, priority 2013, dated 2018).

Molecules are shown by their SMILES. Entries after “also recorded” stand apart in the source; their conditions may differ.

In the test the test system is M1 macrophages and M2 macrophages differentiated from mouse bone marrow cells. The test can be described thus: Subtype identification by staining and flow cytometry of M1 and M2 macrophages differentiated from mouse bone marrow cells. It counts as cell-based, Balb/c mouse. To be noted: for subtype more strongly stained: two compounds used in combination, each 1 μM. The protocol: The culture of subtypes was performed according to a protocol described in NPL 7. Specifically, bone marrow cells collected from the femur of a Balb/c mouse of 8 to 10 weeks old were dispersed to a concentration of 1×10^6/mL in an IMDM containing 20% FBS and 1% P/S, and 1×10^7 cells were seeded in a 100 mm dish. After further adding an M-CSF (manufactured by Pepro Tech) thereto to a concentration of 50 ng/mL, the cells were incubated for 3 to 4 days in the presence of 5% CO2 at 37° C., so as to differentiate macrophage precursor cells to macrophages. After exchanging the medium, the M-CSF was added to a concentration of 50 ng/mL, and the incubation was performed for further 3 to 4 days in the presence of 5% CO2 at 37° C., and then, the resulting cells were differentiated to macrophage. By adding 200 ng of interferon-γ and 1 μg of […] (both manufactured by Pepro Tech) to the IMDM containing 5% FBS and 1% P/S, the cells were differentiated to the subtype M1. Besides, by adding 100 ng of IL-4 to the IMDM containing 5% FBS and 1% P/S, the cells were differentiated to the subtype M2. After performing the incubation for further 3 days in the presence of 5% CO2 at 37° C., the resultant was rinsed with PBS, and PBS containing 0.25% trypsin and 1 mM EDTA (ethylenediaminetetraacetic acid) was used for collecting, from the dish, the macrophages having been differentiated to the subtypes M1 and M2.
Thereafter, the tube was centrifuged at 180 G for 10 minutes to remove the supernatant, a dye for identifying dead cells (aqua fluorescent reactive dye, manufactured by Invitrogen; which is hereinafter sometimes abbreviated as aqua) was added thereto, and the resultant was incubated at 4° C. for 10 minutes. Subsequently, the tube was centrifuged at 180 G for 10 minutes to remove the supernatant, cells were suspended in a FACS buffer to be analyzed by using FACSCanto (trademark) II flow cytometry apparatus manufactured by BD.
The analysis was performed on a cell population showing a low signal for the aqua, so as to analyze a cell population from which dead cells were eliminated. […] A histogram was prepared by plotting fluorescence intensity obtained in the FITC channel on the abscissa and plotting the number of cells at each fluorescence intensity on the ordinate, which is shown in FIG. 2.
Histograms were prepared by plotting fluorescence intensities obtained in the respective channels on the abscissa and plotting the numbers of cells at each fluorescence intensity on the ordinate. A difference between a fluorescence intensity (FM1) at a peak top of the histogram of the M1 macrophage and a fluorescence intensity (FM2) at a peak top of the histogram of the M2 macrophage is divided by a sum of a peak width (WM1) of the histogram of the M1 macrophage and a peak width (WM2) of the histogram of the M2 macrophage, so as to obtain a resolution R, which was used as an index of the identification ability for a subtype (see the following expression (1)). Resolution R=|FM1−FM2|/(WM1+WM2) Expression (1)
On the technique in general: A flow cytometer gives signals particle by particle.

[1] abbreviates: R=|FM1−FM2|/(WM1+WM2), compound 1 μM.
[2] abbreviates: fluorescence intensity at peak top of histogram, compound 1 μM, 37° C., 30 minutes.
Where [3] appears, read: M1 vs M2 macrophages from mouse bone marrow cells, general formula (11) dyes (Table 9).
Setting [4] is: class based on resolution R, general formula (11) dyes (Table 9).
Where [5] appears, read: mouse bone marrow-derived M1 macrophages, channel listed per compound, general formula (11) dyes (Table 9).
[6] abbreviates: mouse bone marrow-derived M2 macrophages, channel listed per compound, general formula (11) dyes (Table 9).
[7] abbreviates: M1 vs M2 macrophages from mouse bone marrow cells, general formula (10) dyes (Table 8).
Where [8] appears, read: class based on resolution R, general formula (10) dyes (Table 8).
[9] abbreviates: mouse bone marrow-derived M1 macrophages, channel listed per compound, general formula (10) dyes (Table 8).
The mark [10] stands for this setting: mouse bone marrow-derived M2 macrophages, channel listed per compound, general formula (10) dyes (Table 8).
Where [11] appears, read: M1 vs M2 macrophages from mouse bone marrow cells, general formula (6) dyes (Table 7).
[12] abbreviates: class based on resolution R, general formula (6) dyes (Table 7).
Where [13] appears, read: mouse bone marrow-derived M1 macrophages, channel listed per compound, general formula (6) dyes (Table 7).
The mark [14] stands for this setting: mouse bone marrow-derived M2 macrophages, channel listed per compound, general formula (6) dyes (Table 7).

For `CCOC(=O)Cn1c(=O)/c(=C\c2ccc3c(c2)C2CCCC2N3Cc2ccccc2)s/c1=C1/SC(=S)N(CC)C1=O` (stereo not shown) [(55)], under setting [1], the “Resolution ratio R” value worked out at 0.206. For the same compound, under setting [2], the “Peak position of M1 macrophage” value is listed as 2.34 and the “Peak position of M2 macrophage” value came out at 1.86. In addition, the “Evaluation of macrophage subtype identification” value (“Evaluation” for short) (rated from resolution R) is “B (the compound is good in the subtype identification (namely, the resolution R is 0.15 or more and less than 0.5))”.
Turning to `O=C(O)CN1C(=O)/C(=C\c2ccc3c(c2)C2CCCC2N3Cc2ccccc2)SC1=S` (stereo not shown) [(28)], the “Resolution ratio R” value under setting [1] stood at 0.431. In addition, under setting [2], the “Peak position of M1 macrophage” value was 9.54 and the “Peak position of M2 macrophage” value turned out to be 15.8. In addition, under “rated from resolution R”, the “Evaluation” value is “B (the compound is good in the subtype identification (namely, the resolution R is 0.15 or more and less than 0.5))”.
In the case of `Cc1cc(C)n2c1C=C1C=CC(CCC(=O)c3c(F)c(F)c(S(=O)(=O)O)c(F)c3F)=[N+]1[B-]2(F)F` [(167)], under setting [3], the “Resolution ratio R” value came to 0.525. For the same compound, the “Evaluation” value under setting [4] is “A (The compound is very good in the subtype identification (namely, the resolution R is 0.5 or more))”. Under setting [5], the “Peak position of M1 macrophage” value was 14.5. Besides, the “Peak position of M2 macrophage” value under setting [6] is listed as 7.82.
Turning to `CCN1c2ccc(/C=C3/SC(=S)N(CCC(=O)O)C3=O)cc2CC1C` (stereo not shown) [(56)], under setting [1], the “Resolution ratio R” value is 0.207. Besides, under setting [2], the “Peak position of M1 macrophage” value is 4.90 and the “Peak position of M2 macrophage” value worked out at 6.36. Besides, the “Evaluation” value (rated from resolution R) was “B (the compound is good in the subtype identification (namely, the resolution R is 0.15 or more and less than 0.5))”.
With `COc1ccc(N2c3ccc(/C=C4/SC(=S)N(CC(=O)O)C4=O)cc3C3CCCC32)cc1` (stereo not shown) [(25)], the “Resolution ratio R” value under setting [1] is listed as 0.346. Under setting [2], the “Peak position of M1 macrophage” value was determined as 27.4 and the “Peak position of M2 macrophage” value turned out to be 18.2. Besides, the “Evaluation” value (rated from resolution R) is “B (the compound is good in the subtype identification (namely, the resolution R is 0.15 or more and less than 0.5))”.
As to `O=C(O)CCC(C(=O)O)N1C(=O)/C(=C\c2ccc3c(c2)C2CCCC2N3c2ccccc2)SC1=S` (stereo not shown) [(23)], the “Resolution ratio R” value under setting [1] is reported as 0.185. Moreover, under setting [2], the “Peak position of M1 macrophage” value is recorded as 1.10 and the “Peak position of M2 macrophage” value was 1.48. Also, the “Evaluation” value (rated from resolution R) was “B (the compound is good in the subtype identification (namely, the resolution R is 0.15 or more and less than 0.5))”.
For the compound `CCN(CC)c1ccc2cc(-c3nc4ccc(OC)cc4o3)c(=O)oc2c1` [(132)], the “Resolution ratio R” value under setting [7] amounted to 0.624. Besides, the “Evaluation” value under setting [8] is recorded as “A (The compound is very good in the subtype identification (namely, the resolution R is 0.5 or more))”. The “Peak position of M1 macrophage” value under setting [9] is 30.3. For the same compound, the “Peak position of M2 macrophage” value under setting [10] was 53.8.
On to `CN1/C(=C\C=C\C2=[N+](C)c3ccccc3C2(C)C)C(C)(C)c2ccccc21` [(95)], for which the “Resolution ratio R” value under setting [11] amounted to 0.421. The “Evaluation” value under setting [12] is “B (the compound is good in the subtype identification (namely, the resolution R is 0.15 or more and less than 0.5))”. Under setting [13], the “Peak position of M1 macrophage” value came to 71.57. Besides, the “Peak position of M2 macrophage” value under setting [14] was found to be 133.45.
With `O=C(O)CN1C(=O)/C(=C\c2ccc3c(c2)C2CCCC2N3c2ccc(C=C(c3ccccc3)c3ccccc3)cc2)SC1=S` (stereo not shown) [(31)], the “Resolution ratio R” value under setting [1] was 0.248. Further, under setting [2], the “Peak position of M1 macrophage” value turned out to be 65.1 and the “Peak position of M2 macrophage” value stood at 89.0. The “Evaluation” value (rated from resolution R) is “B (the compound is good in the subtype identification (namely, the resolution R is 0.15 or more and less than 0.5))”.
Consider `CN1/C(=C/C2=C([O-])C(=C/C3=[N+](C)c4ccccc4C3(C)C)/C2=O)C(C)(C)c2ccccc21` [compound (113)], for which the “subtype more strongly stained” value is on record as “the M2 macrophage shows a higher fluorescence intensity in the APC-Cy7 channel than the M1 macrophage; also recorded: the M2 macrophages are more strongly stained than the M1 macrophages”. The “Resolution ratio R” value under setting [11] turned out to be 0.857. The “Evaluation” value under setting [12] was “A (The compound is very good in the subtype identification (namely, the resolution R is 0.5 or more))”. Moreover, the “Peak position of M1 macrophage” value under setting [13] is given as 9.05. Besides, the “Peak position of M2 macrophage” value under setting [14] is on record as 21.39.
As to `CCN(CC)c1ccc2cc(-c3nc4ccccc4[nH]3)c(=O)oc2c1` [(131)], the “Resolution ratio R” value under setting [7] is 0.480. For the same compound, under setting [8], the “Evaluation” value was “B (the compound is good in the subtype identification (namely, the resolution R is 0.15 or more and less than 0.5))”. Moreover, the “Peak position of M1 macrophage” value under setting [9] is on record as 8.06. Also, the “Peak position of M2 macrophage” value under setting [10] is given as 13.5.
With `Cc1cc(C)n2c1C=C1C=CC(CCC(=O)O)=[N+]1[B-]2(F)F` [(157)], the “Resolution ratio R” value under setting [3] is listed as 0.637. Besides, the “Evaluation” value under setting [4] was “A (The compound is very good in the subtype identification (namely, the resolution R is 0.5 or more))”. In addition, the “Peak position of M1 macrophage” value under setting [5] came to 2.57. Moreover, the “Peak position of M2 macrophage” value under setting [6] amounted to 5.62.
On to `CC1(C)CCN2CCC(C)(C)c3c2c1cc1cc(-c2nc4ccccc4s2)c(=O)oc31` [(138)], for which, under setting [7], the “Resolution ratio R” value is listed as 0.312. Besides, the “Evaluation” value under setting [8] is “B (the compound is good in the subtype identification (namely, the resolution R is 0.15 or more and less than 0.5))”. In addition, the “Peak position of M1 macrophage” value under setting [9] is recorded as 20.6. Besides, the “Peak position of M2 macrophage” value under setting [10] worked out at 28.0.
As to `CCOC(=O)CN1C(=O)/C(=C\c2cc(Br)c3c(c2)C2CCCC2N3c2ccc(Br)cc2)SC1=S` (stereo not shown) [(49)], under setting [1], the “Resolution ratio R” value came out at 0.486. Under setting [2], the “Peak position of M1 macrophage” value was 3.26 and the “Peak position of M2 macrophage” value amounted to 5.02. Besides, where the note is “rated from resolution R”, the “Evaluation” value is “B (the compound is good in the subtype identification (namely, the resolution R is 0.15 or more and less than 0.5))”.
As for `CCN1/C(=C\C=C\C2=[N+](CC)c3ccccc3C23CCCCC3)C2(CCCCC2)c2ccccc21` [(99)], under setting [11], the “Resolution ratio R” value came out at 0.673. The “Evaluation” value under setting [12] was “A (The compound is very good in the subtype identification (namely, the resolution R is 0.5 or more))”. The “Peak position of M1 macrophage” value under setting [13] worked out at 191.14. Also, the “Peak position of M2 macrophage” value under setting [14] turned out to be 331.51.
With `CCN1C(=O)/C(=c2\s/c(=C/c3ccc4c(c3)CC(C)N4CC)c(=O)n2CC(=O)O)SC1=S` (stereo not shown) [(57)], the “Resolution ratio R” value under setting [1] worked out at 0.167. Under setting [2], the “Peak position of M1 macrophage” value is recorded as 4.20 and the “Peak position of M2 macrophage” value is 3.59. Where the note is “rated from resolution R”, the “Evaluation” value was “B (the compound is good in the subtype identification (namely, the resolution R is 0.15 or more and less than 0.5))”.
Consider `CCN1C(=C/C=C/c2n(CC)c3cc(Cl)c(Cl)cc3[n+]2CC)N(CC)c2cc(Cl)c(Cl)cc21` [compound (103)], for which the “subtype more strongly stained” value was “the M2 macrophage shows a higher fluorescence intensity in the PE-Cy7 channel than the M1 macrophage”. For the same compound, under setting [11], the “Resolution ratio R” value came to 0.597. Moreover, under setting [12], the “Evaluation” value is on record as “A (The compound is very good in the subtype identification (namely, the resolution R is 0.5 or more))”. Besides, the “Peak position of M1 macrophage” value under setting [13] worked out at 2.97. In addition, the “Peak position of M2 macrophage” value under setting [14] was found to be 8.23.
